{
  "source": "patent US4098706A",
  "about": "“Lubricating agents for thermoplastic materials and process for preparing the same” (Sapchim-Fournier-Cimag, priority 1975, dated 1978)",
  "key": {"[1]": {"system": "mice"}, "[2]": {"assay": "Tendency for bubbles to appear in the polyvinyl chlorides containing the lubricating agents", "format": "physicochemical", "description": "It is known that a release of gaz during preparation of the resin and particularly at the moment of extrusion or blowing is a grave disadvantage when manufacturing objects such as bottles because it may lead to the formation of visible bubbles in the plastic."}, "[3]": {"assay": "Extractibility of the lubricating agents from bottles by solvents simulating food and drink, 49° C", "format": "physicochemical", "protocol": "The lubricating agents according to the invention may be used to lubricate polymers which are intended for the manufacture of packaging and containers for food and drink and its was therefore necessary, in spite of their low toxicity, to determine their extractibility by various solvents simulating food and drink, namely water, ethanol-water 50/50, an aqueous solution of acetic acid (3%) and heptane.\nThis study was carried out in accordance with the requirements of the Food and Drug Administration (U.S.A.).\nThe extractions were performed in semi-rigid bottles, prepared with the resins given hereabove.\nThe ratio of the volume of solvent to the surface of plastic material exposed to extraction was about […], taking into account the geometric characteristics of the bottles.\nHeating--: A thermostated oven for the non-inflammable solvents (water and acetic acid) A thermostated water-bath for the inflammable solvents (alcohol and heptane)\nThis was, in each case, intentionally longer than that which would have given stable maximum values.\nThe following periods of duration were in fact, observed:\nAcetic acid (3%) : 15 days\nAqueous ethanol: 3 to 4 days\nThe quantity of lubricating agent extracted was determined by thin layer chromatography, by comparison with a standard scale.\nA blank trial was carried out with control bottles containing no lubricating agent and a purely negative result was obtained.\nThe amounts of lubricating agent determined are expressed in μg/ml of extraction solvent or, which is the same, per cm^2 of surface submitted to extraction."}, "[4]": {"conditions": "Formula 915, acetic acid (3%), 15 days"}, "[5]": {"conditions": "Formula 915, aqueous ethanol, 3 to 4 days"}, "[6]": {"conditions": "Formula 913, acetic acid (3%), 15 days"}, "[7]": {"conditions": "Formula 913, aqueous ethanol, 3 to 4 days"}, "[8]": {"conditions": "Formula 914, acetic acid (3%), 15 days"}, "[9]": {"conditions": "Formula 914, aqueous ethanol, 3 to 4 days"}},
  "note": "Like-named read-outs stand apart in the source and are kept apart here.",
  "data": [
    {"smiles": "CCCCCCCCCCCCCCCCCCCCCC(=O)OCC(C)OC(=O)CCCCCCCCCCCCCCCCCCCCC", "note": "(stereo not shown) [Compound 1, 1,2-propanediol dibehenate]", "values": [
      {"measurement": "Toxic symptoms", "setting": "[1]; mouse, in vivo, po", "result": "none"},
      {"measurement": "Observations (release of gas)", "setting": "[2]", "result": "No release"},
      {"measurement": "Temperature at which bubbles appear", "setting": "[2]", "result": 250, "unit": "°C"},
      {"measurement": "Amount of lubricating agent extracted", "setting": "[3]; [4]", "result": 0.13, "unit": "µg/mL"},
      {"measurement": "Amount of lubricating agent extracted", "setting": "[3]; [5]", "result": 0.13, "unit": "µg/mL"},
      {"measurement": "Amount of lubricating agent extracted", "setting": "[3]; Formula 915, heptane, 3 days", "result": 0.26, "unit": "µg/mL"},
      {"measurement": "Amount of lubricating agent extracted", "setting": "[3]; Formula 915, water, 15 days", "result": 0.13, "unit": "µg/mL"}
    ]},
    {"smiles": "CCCCCCCCCCCCCCCCCCCCCC(=O)OCCSCCOC(=O)CCCCCCCCCCCCCCCCCCCCC", "note": "[Compound 2, Thiodiglycol dibehenate]", "values": [
      {"measurement": "Toxic symptoms", "setting": "[1]; oral, mice", "result": "none"},
      {"measurement": "Amount of lubricating agent extracted", "setting": "[3]; [6]", "result": 0.4, "unit": "µg/mL"},
      {"measurement": "Amount of lubricating agent extracted", "setting": "[3]; [7]", "result": 0.6, "unit": "µg/mL"},
      {"measurement": "Amount of lubricating agent extracted", "setting": "[3]; Formula 913, heptane, 3 days", "result": 1.3, "unit": "µg/mL"},
      {"measurement": "Amount of lubricating agent extracted", "setting": "[3]; Formula 913, water, 15 days", "result": 0.13, "unit": "µg/mL"},
      {"measurement": "Amount of lubricating agent extracted", "setting": "[3]; [8]", "result": 0.13, "unit": "µg/mL"},
      {"measurement": "Amount of lubricating agent extracted", "setting": "[3]; [9]", "result": 0.13, "unit": "µg/mL"},
      {"measurement": "Amount of lubricating agent extracted", "setting": "[3]; Formula 914, heptane, 3 days", "result": 0.8, "unit": "µg/mL"},
      {"measurement": "Amount of lubricating agent extracted", "setting": "[3]; Formula 914, water, 15 days", "result": 0.13, "unit": "µg/mL"},
      {"measurement": "Amount of lubricating agent extracted", "setting": "[3]; [4]", "result": 0.13, "unit": "µg/mL"},
      {"measurement": "Amount of lubricating agent extracted", "setting": "[3]; [5]", "result": 0.13, "unit": "µg/mL"},
      {"measurement": "Amount of lubricating agent extracted", "setting": "[3]; Formula 915, heptane, 3 days", "result": 0.6, "unit": "µg/mL"},
      {"measurement": "Amount of lubricating agent extracted", "setting": "[3]; Formula 915, water, 15 days", "result": 0.13, "unit": "µg/mL"}
    ]},
    {"smiles": "CCCCCCCCCCCCCCCCCCCCCC(=O)OCCOCCOCCOC(=O)CCCCCCCCCCCCCCCCCCCCC", "note": "[Compound 4, Triethyleneglycol dibehenate]", "values": [
      {"measurement": "Toxic symptoms", "setting": "[1]; mouse, in vivo, po", "result": "none"}
    ]},
    {"smiles": "CCCCCCCCCCCCCCCCCCCCCC(=O)OCCCCOC(=O)CCCCCCCCCCCCCCCCCCCCC", "note": "[Compound 7, 1,4-butanediol dibehenate]", "values": [
      {"measurement": "Toxic symptoms", "setting": "[1]; mouse, in vivo, po", "result": "none"},
      {"measurement": "Amount of lubricating agent extracted", "setting": "[3]; [8]", "result": 0.13, "unit": "µg/mL"},
      {"measurement": "Amount of lubricating agent extracted", "setting": "[3]; [9]", "result": 0.13, "unit": "µg/mL"},
      {"measurement": "Amount of lubricating agent extracted", "setting": "[3]; Formula 914, heptane, 3 days", "result": 0.8, "unit": "µg/mL"},
      {"measurement": "Amount of lubricating agent extracted", "setting": "[3]; Formula 914, water, 15 days", "result": 0.13, "unit": "µg/mL"}
    ]},
    {"smiles": "CCCCCCCCCCCCCCCCCCCCCC(=O)OCC(COC(=O)CCCCCCCCCCCCCCCCCCCCC)OC(=O)CCCCCCCCCCCCCCCCCCCCC", "note": "[Compound 8, Glyceryl tribehenate]", "values": [
      {"measurement": "Toxic symptoms", "setting": "[1]; mouse, in vivo, po", "result": "none"},
      {"measurement": "Observations (release of gas)", "setting": "[2]", "result": "Slight release"},
      {"measurement": "Temperature at which bubbles appear", "setting": "[2]", "result": 230, "unit": "°C"}
    ]},
    {"smiles": "CCCCCCCCCCCCCCCCCCCCCC(=O)OCC(COC(=O)CCCCCCCCCCCCCCCCCCCCC)(COC(=O)CCCCCCCCCCCCCCCCCCCCC)COC(=O)CCCCCCCCCCCCCCCCCCCCC", "note": "[Compound 9, Pentaerythrite tetrabehenate]", "values": [
      {"measurement": "Toxic symptoms", "setting": "[1]; mouse, in vivo, po", "result": "none"},
      {"measurement": "Observations (release of gas)", "setting": "[2]", "result": "Slight release"},
      {"measurement": "Temperature at which bubbles appear", "setting": "[2]", "result": 195, "unit": "°C"},
      {"measurement": "Amount of lubricating agent extracted", "setting": "[3]; [6]", "result": 0.26, "unit": "µg/mL"},
      {"measurement": "Amount of lubricating agent extracted", "setting": "[3]; [7]", "result": 0.13, "unit": "µg/mL"},
      {"measurement": "Amount of lubricating agent extracted", "setting": "[3]; Formula 913, heptane, 3 days", "result": 0.26, "unit": "µg/mL"},
      {"measurement": "Amount of lubricating agent extracted", "setting": "[3]; Formula 913, water, 15 days", "result": 0.13, "unit": "µg/mL"}
    ]},
    {"smiles": "CCCCCCCCCCCCCCCCCCCCCC(=O)O", "note": "[calcium behenate]", "values": [
      {"measurement": "Toxic symptoms", "setting": "[1]; mouse, in vivo, po", "result": "none"}
    ]}
  ]
}
